From patent US20190119284A1, “ErbB Inhibitors and Uses Thereof” (The Regents of the University of California, priority 2016, published 2019)
“And” between values parts separate entries of the source, which are not always exact repeats. Equal entries are not always repeated. Where two headings read alike, the source gives them in different places.

Tests used:
[1] = Pharmacokinetic study, IP administration in male CD-1 mice; format: in vivo
[2] = Pharmacokinetic study, IV administration in male CD-1 mice; format: in vivo
[3] = Mouse Liver Microsome stability assay; format: in vitro ADME; conditions: mouse liver microsomes
[4] = IP 2.0 mg/kg, individual mice M1-M3
[5] = IP 2.0 mg/kg, individual mice M1-M3, 2 mg/kg
[6] = IP 2.0 mg/kg, plasma, individual mice M1-M3, 2 mg/kg
[7] = male, CD-1, mouse, plasma, ip, 2 mg/kg, Mean
[8] = male, CD-1, mouse, plasma, ip, 2 mg/kg, individual mice M1-M3
[9] = IV 2.0 mg/kg, individual mice M1-M3, 2 mg/kg
[10] = IV 2.0 mg/kg, plasma, individual mice M1-M3, 2 mg/kg
[11] = male, CD-1, mouse, plasma, iv, 2 mg/kg, Mean
[12] = male, CD-1, mouse, plasma, iv, 2 mg/kg, individual mice M1-M3

COc1ccc(-c2cccc(F)c2)cc1Nc1ncnc2[nH]nc(-c3cc[nH]n3)c12 [8168B]
Plasma Concentration at 5.00 h ([1]; IP 2.0 mg/kg, Mean): BLQ | Plasma Concentration at 8.00 h ([1]; IP 2.0 mg/kg, Mean): BLQ | Plasma Concentration at 24.00 h ([1]; IP 2.0 mg/kg, Mean): BLQ | Plasma Concentration at 5.00 h [1, 4]: BLQ | Plasma Concentration at 8.00 h [1, 4]: BLQ | Plasma Concentration at 24.00 h [1, 4]: BLQ | Plasma Concentration at 0.25 h [1, 5]: 189.54 ng/mL and 198.56 ng/mL | Plasma Concentration at 1.00 h [1, 5]: 69.73 ng/mL and 76.68 ng/mL | Plasma Concentration at 3.00 h [1, 5]: 4.17 ng/mL and 2.33 ng/mL | AUCExtra ([1]; IP 2.0 mg/kg, plasma, Mean): 1.11% | AUC0-inf [1, 6]: 163.10 ng·h/mL and 164.87 ng·h/mL | AUC0-last [1, 6]: 160.10 ng·h/mL and 163.46 ng·h/mL | AUCExtra [1, 6]: 0.63% and 1.84% and 0.86% | AUCall [1, 6]: 160.10 ng·h/mL and 163.46 ng·h/mL | Cmax [1, 6]: 189.54 ng/mL and 198.56 ng/mL | Half-life (T½) [1, 6]: 30 min and 25.2 min | MRT0-last [1, 6]: 48.6 min | AUC [1, 7]: 175 ng·h/mL | AUC(0-t) [1, 7]: 175 ng·h/mL | concentration at 0.25 h [1, 7]: 210 ng/mL | concentration at 1 h [1, 7]: 82.3 ng/mL | concentration at 3 h [1, 7]: 2.92 ng/mL | AUC0-inf ([1]; male, CD-1, mouse, plasma, ip, 2 mg/kg, Mean, read-out: AUC0-inf): 177 ng·h/mL | Cmax ([1]; male, CD-1, mouse, plasma, ip, 2 mg/kg, Mean, read-out: Cmax): 210 ng/mL | MRT last ([1]; male, CD-1, mouse, plasma, ip, 2 mg/kg, Mean, read-out: MRT0-last): 46.8 min | Half-life (T½) ([1]; male, CD-1, mouse, plasma, ip, 2 mg/kg, Mean, read-out: Oral T½ (converted)): 26.4 min | AUC [1, 8]: 203 ng·h/mL | AUC(0-t) [1, 8]: 203 ng·h/mL | concentration at 0.25 h [1, 8]: 242 ng/mL | concentration at 1 h [1, 8]: 101 ng/mL | concentration at 3 h [1, 8]: 2.25 ng/mL | AUC0-inf ([1]; male, CD-1, mouse, plasma, ip, 2 mg/kg, individual mice M1-M3, read-out: AUC0-inf): 204 ng·h/mL | Cmax ([1]; male, CD-1, mouse, plasma, ip, 2 mg/kg, individual mice M1-M3, read-out: Cmax): 242 ng/mL | MRT last ([1]; male, CD-1, mouse, plasma, ip, 2 mg/kg, individual mice M1-M3, read-out: MRT0-last): 45.6 min | Half-life (T½) ([1]; male, CD-1, mouse, plasma, ip, 2 mg/kg, individual mice M1-M3, read-out: Oral T½ (converted)): 24 min | Tmax ([1]; male, CD-1, mouse, IP 2.0 mg/kg, plasma, individual mice M1-M3): 15 min | Plasma Concentration at 0.08 h [2, 9]: 53.28 ng/mL and 64.54 ng/mL | Plasma Concentration at 0.25 h [2, 9]: 29.14 ng/mL and 34.06 ng/mL | Plasma Concentration at 1.00 h [2, 9]: 22.71 ng/mL and 12.93 ng/mL | Plasma Concentration at 3.00 h [2, 9]: 11.36 ng/mL and 8.08 ng/mL | Plasma Concentration at 5.00 h [2, 9]: 7.57 ng/mL and 6.55 ng/mL | Plasma Concentration at 8.00 h [2, 9]: 7.32 ng/mL and 9.38 ng/mL | Plasma Concentration at 24.00 h [2, 9]: 5.33 ng/mL and 3.54 ng/mL | AUCExtra ([2]; IV 2.0 mg/kg, plasma, Mean): 46.09% | AUC0-inf [2, 10]: 3147.06 ng·h/mL and 487.06 ng·h/mL and 282.28 ng·h/mL | AUC0-last [2, 10]: 205.32 ng·h/mL and 185.37 ng·h/mL | AUCExtra [2, 10]: 94.18% and 57.85% and 34.33% | AUCall [2, 10]: 205.32 ng·h/mL and 185.37 ng·h/mL | C0 [2, 10]: 71.91 ng/mL and 88.67 ng/mL | Cl [2, 10]: 10.59 mL/min/kg and 68.44 mL/min/kg and 118.09 mL/min/kg | MRT0-last [2, 10]: 542 min | T½ [2, 10]: 302.57 h and 36.64 h and 18.98 h | Vd [2, 10]: 217.05 L/kg and 193.96 L/kg | AUC [2, 11]: 191 ng·h/mL | AUC(0-t) [2, 11]: 191 ng·h/mL | clearance [2, 11]: 93.3 mL/min/kg | concentration at 0.08 h [2, 11]: 58.9 ng/mL | concentration at 0.25 h [2, 11]: 31.6 ng/mL | concentration at 1 h [2, 11]: 17.8 ng/mL | concentration at 3 h [2, 11]: 9.72 ng/mL | concentration at 5 h [2, 11]: 7.06 ng/mL | concentration at 8 h [2, 11]: 8.35 ng/mL | concentration at 24 h [2, 11]: 4.44 ng/mL | AUC0-inf ([2]; male, CD-1, mouse, plasma, iv, 2 mg/kg, Mean, read-out: AUC0-inf): 385 ng·h/mL | C0 ([2]; male, CD-1, mouse, plasma, iv, 2 mg/kg, Mean, read-out: C0): 77.7 ng/mL | MRT last ([2]; male, CD-1, mouse, plasma, iv, 2 mg/kg, Mean, read-out: MRT0-last): 568 min | half-life ([2]; male, CD-1, mouse, plasma, iv, 2 mg/kg, Mean, read-out: T½ (converted)): 1670 min | Vd ([2]; male, CD-1, mouse, plasma, iv, 2 mg/kg, Mean, read-out: Vd): 206 L/kg | AUC [2, 12]: 183 ng·h/mL | AUC(0-t) [2, 12]: 183 ng·h/mL | concentration at 0.08 h [2, 12]: 55.1 ng/mL | concentration at 0.25 h [2, 12]: 31.9 ng/mL | concentration at 1 h [2, 12]: 12.3 ng/mL | concentration at 3 h [2, 12]: 6.96 ng/mL | concentration at 5 h [2, 12]: 7.32 ng/mL | concentration at 8 h [2, 12]: 6.02 ng/mL | concentration at 24 h [2, 12]: 6.79 ng/mL | C0 ([2]; male, CD-1, mouse, plasma, iv, 2 mg/kg, individual mice M1-M3, read-out: C0): 72.4 ng/mL | MRT last ([2]; male, CD-1, mouse, plasma, iv, 2 mg/kg, individual mice M1-M3, read-out: MRT0-last): 618 min | Vd ([2]; male, CD-1, mouse, plasma, iv, 2 mg/kg, individual mice M1-M3, read-out: Vd): 277 L/kg | WuXi Microsomal stability (Mouse Extraction Ratio) [3]: <0.3
